In patent publication US9469648B2, “Reversal of drug-induced neuromuscular block using novel molecular containers” (University of Maryland, College Park, priority 2010, dated 2016):
Like-named read-outs stand apart in the source and are kept apart here.

What was measured:
[1] = Tolerance in mice after tail vein injection (body weight); format: in vivo; conditions: tail vein injection at day 0, 4 and 8, weight monitored
Protocol: FIG. 30. […] Indicated amounts of Motor1 were injected into the tail vein of outbred Swiss Webster mice at day 0, 4 and 8. The weight of each mouse was monitored over time and there were 5 mice per experimental group.
Indicated amounts of Motor1 were injected into the tail vein of outbred Swiss Webster mice at day 0, 4 and 8. The weight of each mouse was monitored over time and there were 5 mice per experimental group.

[2] = rat, in vivo
[3] = system: cisatracurium-induced neuromuscular block; test: Reversal of cisatracurium-induced neuromuscular block in anesthetized rats; format: in vivo; conditions: for Time until normal breathing recovered / Time until quadriceps femoris twitch height normalized: cisatracurium; for Time until normal breathing recovered: placebo 750 (17) s, means (SD); for Time until quadriceps femoris twitch height normalized: placebo 1002 (122) s
Protocol: (§1) Spontaneous breathing was maintained during surgery and if possible according to normal protocol. Rats lay in the supine position with the head supported in a neutral position in the midline on a soft piece of tissue. The left femoral vein and artery were cannulated for drug infusion and blood sampling. […] Corning, N.Y., USA) and continuous measurement of blood pressure (PowerLab; ADInstruments, Colorado Springs, Mo.) and heart rate were performed. If mechanical ventilation was necessary animals were ventilated through a tracheostomy (SAR-830; CWE, Ardmore, Pa., USA). Rectal temperature was kept at 37.0±0.1° C. using a thermostatic heating pad (FHC, Bowdoinham, Me.). Level of anesthesia was maintained throughout the experiment to eliminate cardiovascular response to tail pinch. In all treatment groups, systemic physiological parameters were kept well within normal range. The right leg was shaved and the femoral nerve was stimulated supramaximally with subcutaneous needle electrodes, and the evoked response of the quadriceps femoris muscle was measured by accelerometry, with the TOF-Watch SX Monitor (Organon Ireland Ltd, a part of Schering-Plough Corporation, Dublin, Ireland), as described previously (Fassbender et al, Anesthesiology 2007). The transducer was fixed to the skin ventromedially at the proximal end of the thigh, next to the tibial tuberosity (insertion point of the patellar ligament). […] Endpoints included time to recovery of spontaneous breathing, twitch height as well as TOF-ratio.

[4] = Self-association study by 1H NMR at varied concentration; format: physicochemical; conditions: 20 mM NaD2PO4, pD=7.4, 1H NMR
[5] = Binding of Motor1 and Motor2 with Ketamine (Rhodamine 6G indicator competition, UV-VIS); conditions: Rhodamine 6G displacement titration, 20 mM phosphate buffer pH 7.4
[6] = Binding of Motor1 and Motor2 with Etomidate
[7] = rat, in vivo; remark: listed apart in the source
[8] = system: rocuronium-induced neuromuscular block; test: Reversal of rocuronium-induced neuromuscular block in anesthetized rats; format: in vivo; conditions: for Time until normal breathing recovered: rocuronium 3.5 mg/kg, placebo 720 s; for Time until quadriceps femoris twitch height normalized: rocuronium, placebo 960 s
Protocol: as §1

HepG2 = format: cell-based; conditions: untreated population 60%
Text: FIG. 28. Toxicology of Motor1 using the human liver cell line HepG2. Results from (A) MTS assay (B) AK assay. Untreated population (UT), Distilled water (D), Erythromycin (E), Erythromycin Estolate (EE).
(§2) Toxicity Studies: To measure the cellular toxicity of Motor1 we use two complementary assays: an MTS (CellTiter 96 AQueous Kit®) assay that measures cellular metabolism, and a cytotoxicity assay (Toxilight®BioAssay Kit) that measures cell death via the release of the cytosolic enzyme adenylate kinase into the supernatant. Both assays were used with two different cell lines commonly used in drug toxicity studies, HEK293 and HepG2 cell lines. HEK293, a human kidney cell line, is used to assess the effect of the drug candidate on the renal system and HepG2, a human hepatocyte cell line, is used to assess the response of liver cells where drugs are metabolized. Both assays included the use of an untreated population, and cells treated with distilled water, erythromycin and erythromycin estolate. Erythromycin is a commercially available drug widely used to treat bacterial infections. […] […].
(§3) Both cell lines were incubated with the containers (0.01, 0.1, 1 and 10 mM) for 2 days prior to analysis with the two assays. Relative absorbance and luminescence data was normalized to percent cell viability (MTS) and cell death (AK). For the MTS assay, the untreated cells were set at 100% cell viability while the cell population treated with distilled water was set at a 100% cell death for the AK assay.

HEK293 = test: AK (adenylate kinase release) cytotoxicity assay, HEK293; format: cell-based
Text: FIG. 27. Toxicology of Motor1 using the human kidney cell line HEK293. Results from (A) MTS assay (B) AK assay. Untreated population (UT), Distilled water (D), Erythromycin (E), Erythromycin Estolate (EE).
as §2, §3

[9] = Binding affinities of compounds towards Motor2
ketamine anesthesia = test: Reversal of ketamine anesthesia in rats; format: in vivo
[10] = Binding constants of Motor1 towards guests; conditions: host Motor1
[11] = ketamine anesthesia, Motor2 200 mg

Molecule: CC12N3Cc4c(OCCCS(=O)(=O)[O-])ccc(OCCCS(=O)(=O)[O-])c4CN1C(=O)N1CN4C(=O)N5CN6C(=O)N7CN8C(=O)N9Cc%10c(OCCCS(=O)(=O)[O-])ccc(OCCCS(=O)(=O)[O-])c%10CN%10C(=O)N(CN%11C(=O)N(CN%12C(=O)N(CN(C3=O)C12C)C4C%125)C6C%117)C8(C)C%109C.[Na+].[Na+].[Na+].[Na+] (centres unmarked) [Motor1]
- Tolerance in mice [1]: well tolerated
- Motor1 concentration in the urine relative to plasma [2]: equals concentration in the plasma
- Time until normal breathing recovered ([3]; 30 mg Motor1): 28 (6) s
- Time until normal breathing recovered ([3]; 60 mg Motor1): 11 (4) seconds
- Time until quadriceps femoris twitch height normalized ([3]; first Motor1 dose listed (dose not given; 15 mg)): 266 (17) s
- Time until quadriceps femoris twitch height normalized ([3]; second Motor1 dose listed (30 mg)): 130 (14) s
- Time until quadriceps femoris twitch height normalized ([3]; third Motor1 dose listed (60 mg)): 68 (10) s
- Ka, two-fold self-association model [4]: 47 M⁻¹
- Percent hemolysis (human erythrocytes): ≤ 20%
- Toxicity to human erythrocytes (overall) (human erythrocytes): non-toxic
- Binding constant (Ka) with Ketamine [5]: 39020 M⁻¹
- Binding constant with Etomidate [6]: 35318 M⁻¹
- Arterial blood gas parameters pH, pCO2, and pO2 [7]: did not change
- Heart rate and mean arterial blood pressure [7]: did not change
- Side effects on arterial blood-gas analysis, EKG, arterial blood pressure, heart rate [7]: did not have any side effects
- Mean recovery of spontaneous breathing ([8]; complete rocuronium-induced block, 90 mg as printed): 723 s
- Mean recovery of spontaneous breathing ([8]; complete rocuronium-induced block, dose not given): 10 s
- Reversal of rocuronium (in words) ([8]; rats, Motor1 10, 20, 30 mg): reversed rocuronium effectively, in a dose-dependent fashion
- Time until normal breathing recovered ([8]; Motor1 10 mg): 120 ± 15 s
- Time until normal breathing recovered ([8]; Motor1 20 mg): 15 ± 5 s
- Time until normal breathing recovered ([8]; Motor1 30 mg): 8 ± 3 s
- Time until quadriceps femoris twitch height normalized ([8]; Motor1 10 mg): 240 s
- Time until quadriceps femoris twitch height normalized ([8]; Motor1 20 mg): 120 s
- Time until quadriceps femoris twitch height normalized ([8]; Motor1 30 mg): 60 s
- % cell death (AK) (HepG2; HepG2, 0.01 mM): 55%
- % cell death (AK) (HepG2; HepG2, 0.1 mM): 56%
- % cell death (AK) (HepG2; HepG2, 1 mM): 50%
- % cell death (AK) (HepG2; HepG2, 10 mM): 17%
- Percent cell death (AK) (HEK293; HEK293, all concentrations (0.01, 0.1, 1 and 10 mM)): below 5%

Molecule: Cyclohexanediamine
- Ka (M^−1) with Motor2 ([9]; host Motor2): 2.1 ± 0.2 × 10^8 M^−1

Molecule: CC[C@H]1OC(=O)[C@H](C)[C@@H](O[C@H]2C[C@@](C)(OC)[C@@H](O)[C@H](C)O2)[C@H](C)[C@@H](O[C@@H]2O[C@H](C)C[C@H](N(C)C)[C@H]2O)[C@](C)(O)C[C@@H](C)C(=O)[C@H](C)[C@@H](O)[C@]1(C)O [Erythromycin]
- Percent cell death (AK) (HEK293; HEK293, 1 mM): 25%

Molecule: CC12N3Cc4c(c(OCCCS(=O)(=O)[O-])c5ccccc5c4OCCCS(=O)(=O)[O-])CN1C(=O)N1CN4C(=O)N5CN6C(=O)N7CN8C(=O)N9Cc%10c(c(OCCCS(=O)(=O)[O-])c%11ccccc%11c%10OCCCS(=O)(=O)[O-])CN%10C(=O)N(CN%11C(=O)N(CN%12C(=O)N(CN(C3=O)C12C)C4C%125)C6C%117)C8(C)C%109C.[Na+].[Na+].[Na+].[Na+] (centres unmarked) [Motor2]
- Speed of reversal of cisatracurium, twitch height recovery (comparison) ([3]; low-dose Motor2 versus high-dose Motor1): reverses the benzylisoquinolinum cisatracurium faster than high-dose 1
- Ka, two-fold self-association model [4]: 624 M⁻¹
- Binding constant (Ka) with Ketamine [5]: 193490 M⁻¹
- Reversal of ketamine anesthesia (in words) (ketamine anesthesia; ketamine 1500 μg/kg/min, Motor2 200 mg at 60 minutes): reverses ketamine anesthesia
- Electroencephalogram (EEG) (ketamine anesthesia; [11]): wakefulness-like electrical activity
- Respiratory rate and arterial blood pressure (ketamine anesthesia; [11]): increased
- Time until the rat woke up after injection (ketamine anesthesia; steady-state ketamine infusion, Motor2 200 mg): ≤ 2 min
- Binding constant with Etomidate [6]: 36812 M⁻¹
- Side effects on arterial blood-gas analysis, EKG, arterial blood pressure, heart rate [7]: did not have any side effects
- Mean time to recovery of the twitch height to 90% ([8]; complete rocuronium-induced block, 90 mg, placebo 19 minutes): 2.5 min

Molecule: COc1ccc(CC2c3cc(OC)c(OC)cc3CC[N+]2(C)CCC(=O)OCCCCCOC(=O)CC[N+]2(C)CCc3cc(OC)c(OC)cc3C2Cc2ccc(OC)c(OC)c2)cc1OC (centres unmarked) [atracurium]
- Ka, binding constant of Motor1 towards guest [10]: 1.4 ± 0.1 × 10^6

Molecule: CCC(=O)O[C@H]1[C@H](O[C@@H]2[C@@H](C)[C@H](O[C@H]3C[C@@](C)(OC)[C@@H](O)[C@H](C)O3)[C@@H](C)C(=O)O[C@H](CC)[C@@](C)(O)[C@H](O)[C@@H](C)C(=O)[C@H](C)C[C@@]2(C)O)O[C@H](C)C[C@@H]1N(C)C [Erythromycin estolate]
- Percent cell death (AK) (HEK293; human, 2 days, 1 mM): 49%

Molecule: COc1ccc(CC2c3cc(OC)c(OC)cc3CC[N+]2(C)CCC(=O)OCCCCCOC(=O)CC[N+]2(C)CCc3cc(OC)c(OC)cc3C2Cc2ccc(OC)c(OC)c2)cc1OC (centres unmarked) [Atracurium besilate]
- Ka (M^−1) with Motor2 ([9]; host Motor2): 1.0 ± 0.1 × 10^9 M^−1

Molecule: Nc1ccc2cc3ccc(N)cc3nc2c1 [Proflavin]
- Ka (M^−1) with Motor2 ([9]; host Motor2): 7.8 ± 0.8 × 10^8 M^−1

Molecule: CC[N+](CC)(CC)CCOc1cccc(OCC[N+](CC)(CC)CC)c1OCC[N+](CC)(CC)CC [gallamine]
- Ka, binding constant of Motor1 towards guest [10]: 6.2 ± 0.5 × 10^6
- Ka (M^−1) with Motor2 [9]: 3.2 ± 0.4 × 10^8 M^−1

Molecule: COc1cc2c3cc1Oc1cc(ccc1O)C[C@@H]1c4c(cc(OC)c(O)c4Oc4ccc(cc4)C[C@@H]3N(C)CC2)CC[N+]1(C)C [tubocurarine]
- Ka, binding constant of Motor1 towards guest [10]: 4.7 ± 0.2 × 10^5

Molecule: CC(=O)O[C@H]1C[C@@H]2CC[C@@H]3[C@H](CC[C@@]4(C)[C@H]3C[C@H]([N+]3(C)CCCCC3)[C@@H]4OC(C)=O)[C@@]2(C)C[C@@H]1N1CCCCC1 [vecuronium]
- Ka, binding constant of Motor1 towards guest [10]: 5.8 ± 0.9 × 10^6
- Ka (M^−1) with Motor2 [9]: 1.6 ± 0.2 × 10^9 M^−1
